Results reported in BindingDB's records for doi:10.1016/j.bmc.2018.11.002 (2018).

Experiments:
[1] = Inhibition of mouse GAT3 expressed in HEK293 cells assessed as reduction in [3H]GABA uptake preincubated for 25 mins followed by [3H]GABA addition and measured after 4 mins by liquid scintillation counting method
[2] = Inhibition of mouse GAT2 expressed in HEK293 cells assessed as reduction in [3H]GABA uptake preincubated for 25 mins followed by [3H]GABA addition and measured after 4 mins by liquid scintillation counting method

IC50 [1] [µM] | IC50 [2] [µM] | Compound
10.2 | – | COc1ccc(C(/C=C/CN2CCCC(C(=O)O)C2)(c2ccc(OC)cc2)c2ccc3c(c2)OCO3)cc1 (stereo not given)
85.1 | – | COc1ccc(C(C/C=C/CN2CCCC(C(=O)O)C2)(c2ccc(OC)cc2)c2ccc(OC)cc2)cc1 (stereo not given)
42.7 | – | COc1ccc(C(/C=C/CN2CCCC(C(=O)O)C2)(c2ccc(OC)cc2)c2ccsc2)cc1 (stereo not given)
20 | 25.1 | COc1ccc(C(/C=C/CN2CCCC(C(=O)O)C2)(c2ccc(OC)cc2)c2ccc3sccc3c2)cc1 (stereo not given)
– | 23.4 | COc1ccc(C(/C=C/CN2CCC[C@H](C(=O)O)C2)(c2ccc(OC)cc2)c2ccc3sccc3c2)cc1
5.5 | 9.55 | O=C(O)C1CCCN(C/C=C/C(c2ccc3occc3c2)(c2ccc3occc3c2)c2ccc3occc3c2)C1 (stereo not given)
24.5 | 89.1 | O=C(O)C1CCCN(C/C=C/C(c2ccc3c(c2)OCO3)(c2ccc3c(c2)OCO3)c2ccc3c(c2)OCO3)C1 (stereo not given)
52.5 | 33.9 | O=C(O)C1CCCN(C/C=C/C(c2ccc3sccc3c2)(c2ccc3sccc3c2)c2ccc3sccc3c2)C1 (stereo not given)
53.7 | – | COc1ccc(C(/C=C/CN2CCCC(C(=O)O)C2)c2ccc(OC)cc2)cc1 (stereo not given)
15.8 | 14.1 | Cc1ccc(C(/C=C/CN2CCCC(C(=O)O)C2)(c2ccc(C)cc2)c2ccc(C)cc2)cc1 (stereo not given)
